Experiments:
Mat-LyLu cells [1] = assay: Cell viability assay (trypan blue); type: cell-based, rat; details: 24 hours
Experimental: Cells were seeded at a density of 5×10^4 cells/ml in 35 mm Falcon tissue culture dishes. After treatment with a given drug, the medium was removed and replaced with 800 μl of growth medium and 200 μl 0.4% trypan blue (Sigma, Dorset, UK) and incubated for 10 minutes in the incubator. The trypan blue was removed and the cells were washed once with 3 ml growth medium. For each treatment, cells from 30 random fields of view were counted under 100× magnification. The number of dead cells, stained blue, was counted in each field of view. The data were expressed as percentages of living cells out of the total number of cells in given fields of view. The percentages were averaged and differences between control and treatment were compared from at least three independent experiments.
(§1) With the exception of single cell adhesion tests, which are discussed in the following paragraph, experiments were carried out under either; • (i) normal normoxic conditions ([…], 5% carbon dioxide), or • (ii) following 24 hours hypoxic pre-treatment (2% O2, 5% CO2, 93% N2) continued during the assays.

MDA-MB-231 cells [2] = assay: Cell growth (proliferation) assay (MTT); type: cell-based, human; details: for PROLIFERATION (24 hours) / growth (number of cells): Normoxia; for growth (number of cells): 48 hours
Experimental: (§2) Cells were plated at 2×10^4 cells/ml in 24-well plates (Becton-Dickinson) and allowed to settle overnight. The cells were then treated for the required time of incubation (24 hours+), with medium changes every 24 hours. At the end of the treatment, the medium was removed, and this was followed by the colorimetric 3-[4,5-dimethylthiazol-2-yl]-2,5-diphenyltetrazolium bromide (MTT) assay (Grimes et al., 1995). Briefly, 0.1 ml MTT (5 mg/ml made up in the growth medium) and 0.4 ml growth medium was added in each well and the plate was incubated for 3-4 hours at 37° C. The medium was then removed from the chambers and replaced with 0.5 ml dimethyl sulfoxide (DMSO) and 0.063 ml glycine buffer (0.1 M glycine and 0.1 M NaCl; pH 10.5). Absorbance at 570 nm was determined 15 minutes after the addition of the glycine buffer. Results were calculated as means of nine repeats of each of the treatment vs. control spectrophotometer readings from individual invasion wells.
as §1

Mat-LyLu cells [3] = assay: Invasion assay (Matrigel Transwell); type: cell-based, rat
Excerpt: This assay is an extension of the transverse migration assay described above. To “invade”, the cells need both (i) to move as in the transverse migration assay and (ii) secrete a proteolytic enzyme to digest their surroundings. The ability of cells to invade neighbouring tissues by enzyme secretion was therefore assessed by using a layer of Matrigel™ (BD Biosciences) spread across the porous membrane of a Transwell® insert.
FIG. 7 is a schematic side sectional view of an invasion chamber 701 having a Transwell® insert 702 separating the chamber into upper 703 and lower 704 sections. The insert 702 has a migration filter membrane 705 in its base with 8 μm pores 706 extending therethrough. A layer 707 of Matrigel™ is shown coating the filter membrane 705.
Cells 708 were plated at a density of 2×10^4/ml onto the Matrigel™ layer 707 in 24-well plates (Becton-Dickinson) according to the manufacturers' instructions. 50 μl Matrigel™ was seeded at a 1:7 dilution (10 mg/ml stock) onto the inserts and left overnight. Prior to seeding with the cells the Matrigel™ was rehydrated using medium with no additions. This medium was removed prior to seeding the cells.
Cells were plated in a 1-5% FBS chemotactic gradient overnight (12 hours). The nutrient concentration in the medium 709 in the upper section 703 of the chamber was less than the concentration of nutrient in the medium 710 in the lower section 704 to induced movement of the cells through the Matrigel™ layer 707 and through the pores 706 to the underside of the filter membrane 705. At the end of each assay, non-invaded/non-migrated cells were removed from the upper surface of the insert 702 with two different swabs.
The number of cells invading to the underside of the insert 702 was determined using crystal violet staining. Invaded cells were fixed for 15 minutes with ice-cold methanol. Then 0.5% crystal violet (in 25% methanol) was added for 15 minutes. The inserts were swabbed again and then washed in water and allowed to dry. Cells were then counted using twelve separate fields of view per insert (×200 magnification). If the difference in the average number of cells invading the two control inserts was more than 40%, the experiment was rejected.
as §1

MDA-MB-231 cells [4] = assay: Transverse migration assay (Transwell); type: cell-based, human
Experimental: This assay was used to represent the ability of cells to migrate as they intra/extravasate. […] The insert 602 has a migration filter membrane 605 in its base with 8 μm pores 606 extending therethrough.
Cells 607 were plated at a density of 2×10^4/ml on the filter membrane 605 and placed under a growth medium 608 containing 1% foetal bovine serum (FBS). A chemotactic gradient was created across the filter membrane 605 by placing growth medium 609 containing 10% FBS in the lower section 604 of the chamber.
Cells were allowed to migrate across the filter membrane 605 over a period of 24 hours, cells migrating and adhering to the underside of the filter membrane 605.
At the end of each assay, non-migrated cells were removed from the upper surface of the insert 602 with two different swabs
The number of cells migrating to the underside of the insert 602 was determined using crystal violet staining. Migrated cells were fixed for 15 minutes with ice-cold methanol. Then 0.5% crystal violet (in 25% methanol) was added for 15 minutes. The inserts were swabbed again and then washed in water and allowed to dry. Cells were then counted using twelve separate fields of view per insert (×200 magnification).
as §1

Mat-LyLu cells [5] = assay: Cell growth (proliferation) assay (MTT); type: cell-based, rat
Experimental: as §2, §1

[6] = Hypoxia, 20 μM, listed as RANOLAZINE
[7] = Hypoxia, 50 μM, listed as RANOLAZINE
[8] = Hypoxia, 300 μM, listed as RANOLAZINE
[9] = Normoxia, 20 μM, listed as RANOLAZINE
[10] = Normoxia, 50 μM, listed as RANOLAZINE
[11] = Normoxia, 300 μM, listed as RANOLAZINE

## COc1ccccc1OCC(O)CN1CCN(CC(=O)Nc2c(C)cccc2C)CC1 (centres unmarked) [ranolazine]
Mat-LyLu cells [1]; Hypoxia, 20 μM
  CELL VIABILITY: no effect
Mat-LyLu cells [1]; Hypoxia, 50 μM
  CELL VIABILITY: no effect
Mat-LyLu cells [1]; Hypoxia, 300 μM
  CELL VIABILITY: no effect
Mat-LyLu cells [1]; Normoxia, 20 μM
  CELL VIABILITY: no effect
Mat-LyLu cells [1]; Normoxia, 50 μM
  CELL VIABILITY: no effect
Mat-LyLu cells [1]; Normoxia, 300 μM
  CELL VIABILITY: no effect
MDA-MB-231 cells [2]; Hypoxia, same concentrations (1 μM, 10 μM and 100 μM), results not shown
  growth: did not affect the growth
MDA-MB-231 cells [2]; 1 μM
  PROLIFERATION (24 hours): no significant difference
  growth (number of cells): no statistically significant difference
MDA-MB-231 cells [2]; 1 μM, listed as RANOLAZINE
  PROLIFERATION (24 hours): no effect
MDA-MB-231 cells [2]; 10 μM
  PROLIFERATION (24 hours): no significant difference
  growth (number of cells): no statistically significant difference
MDA-MB-231 cells [2]; 10 μM, listed as RANOLAZINE
  PROLIFERATION (24 hours): no effect
MDA-MB-231 cells [2]; 100 μM
  PROLIFERATION (24 hours): no significant difference
  growth (number of cells): no statistically significant difference
MDA-MB-231 cells [2]; 100 μM, listed as RANOLAZINE
  PROLIFERATION (24 hours): no effect
Mat-LyLu cells [3]; Hypoxia, 20 μM
  INVASIVENESS (no pretreatment): reduced the migration of the cells in a statistically significant way
Mat-LyLu cells [3]; [6]
  INVASIVENESS (no pretreatment): decreased
Mat-LyLu cells [3]; Hypoxia, 50 μM
  INVASIVENESS (no pretreatment): reduced the migration of the cells in a statistically significant way
Mat-LyLu cells [3]; [7]
  INVASIVENESS (no pretreatment): decreased
Mat-LyLu cells [3]; Hypoxia, 300 μM
  INVASIVENESS (no pretreatment): reduced the migration of the cells in a statistically significant way
Mat-LyLu cells [3]; [8]
  INVASIVENESS (no pretreatment): decreased
Mat-LyLu cells [3]; Normoxia, 20 μM
  INVASIVENESS (no pretreatment): reduced the migration of the cells in a statistically significant way
Mat-LyLu cells [3]; [9]
  INVASIVENESS (no pretreatment): decreased
Mat-LyLu cells [3]; Normoxia, 50 μM
  INVASIVENESS (no pretreatment): reduced the migration of the cells in a statistically significant way
Mat-LyLu cells [3]; [10]
  INVASIVENESS (no pretreatment): decreased
Mat-LyLu cells [3]; Normoxia, 300 μM
  INVASIVENESS (no pretreatment): reduced the migration of the cells in a statistically significant way
Mat-LyLu cells [3]; [11]
  INVASIVENESS (no pretreatment): decreased
Mat-LyLu cells [3]; higher concentrations tested, TTX 1 μM
  potency on invasiveness compared with positive control TTX: more potent than the toxin (TTX)
MDA-MB-231 cells [4]; Hypoxia, 1 μM
  TRANSVERSE MIGRATION: reduced the transverse migration of the cells in a statistically significant way
MDA-MB-231 cells [4]; Hypoxia, 1 μM, listed as RANOLAZINE
  TRANSVERSE MIGRATION: decreased
MDA-MB-231 cells [4]; Hypoxia, 10 μM
  TRANSVERSE MIGRATION: reduced the transverse migration of the cells in a statistically significant way
MDA-MB-231 cells [4]; Hypoxia, 10 μM, listed as RANOLAZINE
  TRANSVERSE MIGRATION: decreased
MDA-MB-231 cells [4]; Hypoxia, 100 μM
  TRANSVERSE MIGRATION: the reduction was not statistically significant
MDA-MB-231 cells [4]; Hypoxia, 100 μM, listed as RANOLAZINE
  TRANSVERSE MIGRATION: decreased
MDA-MB-231 cells [4]; Normoxia, 1 μM
  TRANSVERSE MIGRATION: reduced the transverse migration of the cells only slightly
MDA-MB-231 cells [4]; Normoxia, 1 μM, listed as RANOLAZINE
  TRANSVERSE MIGRATION: increased
MDA-MB-231 cells [4]; Normoxia, 10 μM
  TRANSVERSE MIGRATION: reduced the transverse migration of the cells only slightly
MDA-MB-231 cells [4]; Normoxia, 10 μM, listed as RANOLAZINE
  TRANSVERSE MIGRATION: decreased
MDA-MB-231 cells [4]; Normoxia, 100 μM
  TRANSVERSE MIGRATION: reduced the transverse migration of the cells only slightly
MDA-MB-231 cells [4]; Normoxia, 100 μM, listed as RANOLAZINE
  TRANSVERSE MIGRATION: decreased
Mat-LyLu cells [5]; Hypoxia, 20 μM
  PROLIFERATION (24 hours): did not result in any statistically significant effect
Mat-LyLu cells [5]; [6]
  PROLIFERATION (24 hours): no effect
Mat-LyLu cells [5]; Hypoxia, 50 μM
  PROLIFERATION (24 hours): did not result in any statistically significant effect
Mat-LyLu cells [5]; [7]
  PROLIFERATION (24 hours): no effect
Mat-LyLu cells [5]; Hypoxia, 300 μM
  PROLIFERATION (24 hours): reduction in the number of cells
Mat-LyLu cells [5]; [8]
  PROLIFERATION (24 hours): tail off
Mat-LyLu cells [5]; Normoxia, 20 μM
  PROLIFERATION (24 hours): did not result in any statistically significant effect
Mat-LyLu cells [5]; [9]
  PROLIFERATION (24 hours): no effect
Mat-LyLu cells [5]; Normoxia, 50 μM
  PROLIFERATION (24 hours): did not result in any statistically significant effect
Mat-LyLu cells [5]; [10]
  PROLIFERATION (24 hours): no effect
Mat-LyLu cells [5]; Normoxia, 300 μM
  PROLIFERATION (24 hours): did not result in any statistically significant effect
Mat-LyLu cells [5]; [11]
  PROLIFERATION (24 hours): tail off

Source: patent US12534444B2, “Treatment of cancer/inhibition of metastasis” (Celex Oncology Innovations Limited, priority 2010, dated 2026)
